For one assay, the target named is T1, rat P2X3 receptor (Rattus norvegicus, UniProt P49654).
T1 construct: expressed in transfected cells; host or cells: CHO-K1
T1 sequence (P49654 1-397): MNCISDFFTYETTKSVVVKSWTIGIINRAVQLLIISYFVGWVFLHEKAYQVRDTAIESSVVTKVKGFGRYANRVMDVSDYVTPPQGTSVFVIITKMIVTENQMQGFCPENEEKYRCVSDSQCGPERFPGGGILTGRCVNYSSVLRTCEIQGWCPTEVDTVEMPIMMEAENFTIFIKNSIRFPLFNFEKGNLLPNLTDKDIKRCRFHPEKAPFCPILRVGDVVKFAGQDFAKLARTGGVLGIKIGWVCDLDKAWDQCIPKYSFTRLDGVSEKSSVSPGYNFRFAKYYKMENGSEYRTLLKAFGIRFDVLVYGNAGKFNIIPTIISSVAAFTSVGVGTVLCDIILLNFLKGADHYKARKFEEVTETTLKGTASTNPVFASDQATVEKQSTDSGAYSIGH
Briefly: P2X3 FLIPR (Fluorometric Imaging Plate Reader) assay. Format: cell-based. To be noted: CHO-K1 cells transfected with cloned rat P2X3; agonist α,β-meATP 1 μM; Fluo-3 calcium fluorescence. The procedure:
(§1) P2X3/P2X2/3 FLIPR (Fluorometric Imaging Plate Reader) Assay
(§2) CHO-K1 cells were transfected with cloned rat P2X3 or human P2X2/3 receptor subunits and passaged in flasks. 18-24 hours before the FLIPR experiment, cells were released from their flasks, centrifuged, and resuspended in nutrient medium at 2.5×10^5 cells/ml. The cells were aliquoted into black-walled 96-well plates at a density of 50,000 cells/well and incubated overnight in 5% CO2 at 37° C. On the day of the experiment, cells were washed in FLIPR buffer (calcium- and magnesium-free Hank's balanced salt solution, 10 mM HEPES, 2 mM CaCl2, 2.5 mM probenecid; FB). Each well received 100 μl FB and 100 μl of the fluorescent dye Fluo-3 AM [2 μM final conc.]. After a 1 hour dye loading incubation at 37° C., the cells were washed 4 times with FB, and a final 75 μl/well FB was left in each well.
(§3) Test compounds (dissolved in DMSO at 10 mM and serially diluted with FB) or vehicle were added to each well (25 μl of a 4× solution) and allowed to equilibrate for 20 minutes at room temperature. The plates were then placed in the FLIPR and a baseline fluorescence measurement (excitation at 488 nm and emission at 510-570 nm) was obtained for 10 seconds before a 100 μl/well agonist or vehicle addition. The agonist was a 2× solution of α,β-meATP producing a final concentration of 1 μM (P2X3) or 5 μM (P2X2/3). Fluorescence was measured for an additional 2 minutes at 1 second intervals after agonist addition. A final addition of ionomycin (5 μM, final concentration) was made to each well of the FLIPR test plate to establish cell viability and maximum fluorescence of dye-bound cytosolic calcium. Peak fluorescence in response to the addition of α,β-meATP (in the absence and presence of test compounds) was measured and inhibition curves generated using nonlinear regression. PPADS, a standard P2X antagonist, was used as a positive control.

A further assay addresses T2, human P2X2/3 receptor (Homo sapiens, UniProt P56373+Q9UBL9).
T2 construct: expressed in transfected cells; host or cells: CHO-K1
T2 sequence (Q9UBL9 1-471): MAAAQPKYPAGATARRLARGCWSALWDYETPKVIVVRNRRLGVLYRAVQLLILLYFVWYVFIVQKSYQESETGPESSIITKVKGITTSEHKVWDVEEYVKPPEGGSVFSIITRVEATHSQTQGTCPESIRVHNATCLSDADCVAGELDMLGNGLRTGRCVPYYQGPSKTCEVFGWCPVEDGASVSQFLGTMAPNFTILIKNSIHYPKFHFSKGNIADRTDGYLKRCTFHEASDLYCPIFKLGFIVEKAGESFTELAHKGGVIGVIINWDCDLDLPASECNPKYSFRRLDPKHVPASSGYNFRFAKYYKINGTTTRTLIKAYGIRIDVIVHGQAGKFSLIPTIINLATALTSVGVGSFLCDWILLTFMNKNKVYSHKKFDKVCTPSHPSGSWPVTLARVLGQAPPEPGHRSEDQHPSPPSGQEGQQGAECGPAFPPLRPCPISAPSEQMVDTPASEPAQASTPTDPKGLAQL
T2 sequence (P56373 1-397): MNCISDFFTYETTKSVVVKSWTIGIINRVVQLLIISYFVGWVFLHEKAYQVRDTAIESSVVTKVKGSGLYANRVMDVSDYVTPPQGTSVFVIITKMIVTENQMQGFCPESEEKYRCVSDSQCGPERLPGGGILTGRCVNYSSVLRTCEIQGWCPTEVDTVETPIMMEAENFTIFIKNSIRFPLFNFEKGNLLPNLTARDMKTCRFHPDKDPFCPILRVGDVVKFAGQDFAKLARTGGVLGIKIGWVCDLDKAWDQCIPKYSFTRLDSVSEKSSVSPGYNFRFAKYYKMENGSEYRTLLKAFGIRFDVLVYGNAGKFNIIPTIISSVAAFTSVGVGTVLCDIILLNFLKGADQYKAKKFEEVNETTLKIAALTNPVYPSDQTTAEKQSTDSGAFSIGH
Briefly: P2X2/3 FLIPR (Fluorometric Imaging Plate Reader) assay. Format: cell-based. Particulars: CHO-K1 cells transfected with human P2X2/3; agonist α,β-meATP 5 μM; Fluo-3 calcium fluorescence. The procedure:
as §1, §2, §3

On to `Cc1ccc(-c2cc(C(=O)N[C@@H](C)CO)cc3c2cnn3-c2ccccc2C(C)C)nc1` [Compound 20, 1-(2-Isopropyl-phenyl)-4-(5-methyl-pyridin-2-yl)-1H-indazole-6-carboxylic acid ((S)-2-hydroxy-1-methyl-ethyl)-amide], for which, at rat P2X3 receptor, the “pKi P2X3” value came to 7.55. The “pKi P2X2/3” value on human P2X2/3 receptor is reported as 6.19.

As for `Cc1ccc(-c2cc(C(=O)NCc3cnc(C)cn3)cc3c2cnn3Cc2ccccc2)nc1` [Compound 9, 1-Benzyl-4-(5-methyl-pyridin-2-yl)-1H-indazole-6-carboxylic acid (5-methyl-pyrazin-2-ylmethyl)-amide], the “pKi P2X3” value at rat P2X3 receptor is recorded as 7.25. For the same molecule, the “pKi P2X2/3” value on human P2X2/3 receptor was found to be 6.25.

Consider `Cc1ccc(-c2cc(C(=O)NCc3cnc(C)cn3)cc3c2cnn3-c2ccccc2C)nc1` [Compound 18, 4-(5-Methyl-pyridin-2-yl)-1-o-tolyl-1H-indazole-6-carboxylic acid (5-methyl-pyrazin-2-ylmethyl)-amide], for which the “pKi P2X3” value at rat P2X3 receptor was 8.01. For the same molecule, on human P2X2/3 receptor, the “pKi P2X2/3” value stood at 7.26.

Regarding `Cc1ccc(-n2ncc3c(-c4ccc(C)cn4)cc(C(=O)NCc4cnc(C)cn4)cc32)cc1` [Compound 16, 4-(5-Methyl-pyridin-2-yl)-1-p-tolyl-1H-indazole-6-carboxylic acid (5-methyl-pyrazin-2-ylmethyl)-amide], the “pKi P2X3” value on rat P2X3 receptor amounted to 7.7. Besides, the “pKi P2X2/3” value at human P2X2/3 receptor is reported as 6.4.

With `Cc1ccc(-c2cc(C(=O)N[C@@H](C)CO)cc3c2ccn3C(C)C)nc1` [Compound 27, 1-Isopropyl-4-(5-methyl-pyridin-2-yl)-1H-indole-6-carboxylic acid ((S)-2-hydroxy-1-methyl-ethyl)-amide], the “pKi P2X3” value at rat P2X3 receptor is recorded as 5.48.

Regarding `Cc1ccc(-c2cc(C(=O)N[C@@H](C)CO)cc3c2cnn3-c2ccccc2)nc1` [Compound 15, 4-(5-Methyl-pyridin-2-yl)-1-phenyl-1H-indazole-6-carboxylic acid ((S)-2-hydroxy-1-methyl-ethyl)-amide], the “pKi P2X3” value at rat P2X3 receptor stood at 6.19. Besides, the “pKi P2X2/3” value at human P2X2/3 receptor came out at 5.34.

Regarding `Cc1ccc(-c2cc(C(=O)NCc3cnc(C)cn3)cc3c2ccn3C(C)C)nc1` [Compound 26, 1-Isopropyl-4-(5-methyl-pyridin-2-yl)-1H-indole-6-carboxylic acid (5-methyl-pyrazin-2-ylmethyl)-amide], the “pKi P2X3” value at rat P2X3 receptor stood at 6.26.

In the case of `Cc1ccc(-c2cc(C(=O)NCc3ccc(C)nn3)cc3c2cnn3CC(F)(F)F)nc1` [Compound 13, 4-(5-Methyl-pyridin-2-yl)-1-(2,2,2-trifluoro-ethyl)-1H-indazole-6-carboxylic acid (6-methyl-pyridazin-3-ylmethyl)-amide], the “pKi P2X3” value on rat P2X3 receptor stood at 7.19. For the same molecule, the “pKi P2X2/3” value on human P2X2/3 receptor was 6.51.

Turning to `Cc1ccc(-c2cc(C(=O)N[C@@H](C)CO)cc3c2cnn3-c2ccccc2C)nc1` [Compound 19, 4-(5-Methyl-1-pyridin-2-yl)-1-o-tolyl-1H-indazole-6-carboxylic acid ((S)-2-hydroxy-1-methyl-ethyl)-amide], the “pKi P2X3” value on rat P2X3 receptor came to 7.98. Also, the “pKi P2X2/3” value on human P2X2/3 receptor is given as 6.

On to `CCCCn1ncc2c(-c3ccc(C)cn3)cc(C(=O)NCc3cnc(C)cn3)cc21` [Compound 2, 1-Butyl-4-(5-methyl-pyridin-2-yl)-1H-indazole-6-carboxylic acid (5-methyl-pyrazin-2-ylmethyl)-amide], for which the “pKi P2X3” value on rat P2X3 receptor turned out to be 7.38. Moreover, the “pKi P2X2/3” value at human P2X2/3 receptor is reported as 6.34.

Regarding `Cc1ccc(-c2cc(C(=O)NCc3ccc(C)nn3)cc3c2ccn3C(C)C)nc1` [Compound 25, 1-Isopropyl-4-(5-methyl-pyridin-2-yl)-1H-indole-6-carboxylic acid (6-methyl-pyridazin-3-ylmethyl)-amide], the “pKi P2X3” value on rat P2X3 receptor is 7.27. In addition, at human P2X2/3 receptor, the “pKi P2X2/3” value worked out at 5.32.

For the molecule `CCCCn1ncc2c(-c3ccc(C)cn3)cc(C(=O)N[C@@H](C)CO)cc21` [Compound 3, 1-Butyl-4-(5-methyl-pyridin-2-yl)-1H-indazole-6-carboxylic acid ((S)-2-hydroxy-1-methyl-ethyl)-amide], the “pKi P2X3” value on rat P2X3 receptor is 6.31.

As for `Cc1ccc(-c2cc(C(=O)NCc3cnc(C)cn3)cc3c2cnn3CCC(C)C)nc1` [Compound 7, 1-(3-Methyl-buty)-4-(5-methyl-pyridin-2-yl)-1H-indazole-6-carboxylic acid (5-methyl-pyrazin-2-ylmethyl)-amide], the “pKi P2X3” value at rat P2X3 receptor was 7.47. At human P2X2/3 receptor, the “pKi P2X2/3” value came out at 6.17.

As for `Cc1ccc(-c2cc(C(=O)N[C@@H](C)CO)cc3c2ncn3CC(C)C)nc1` [Compound 29, 3-Isobutyl-7-(5-methyl-pyridin-2-yl)-3H-benzoimidazole-5-carboxylic acid ((S)-2-hydroxy-1-methyl-ethyl)-amide], the “pKi P2X3” value on rat P2X3 receptor turned out to be 5.24.

Regarding `Cc1ccc(-c2cc(C(=O)NCc3cnc(C)cn3)cc3c2ccn3CC(C)C)nc1` [Compound 21, 1-Isobutyl-4-(5-methyl-pyridin-2-yl)-1H-indole-6-carboxylic acid (5-methyl-pyrazin-2-ylmethyl)-amide], the “pKi P2X3” value at rat P2X3 receptor is given as 7.17. Also, on human P2X2/3 receptor, the “pKi P2X2/3” value is 5.92.

Regarding `Cc1ccc(-c2cc(C(=O)N[C@@H](C)CO)cc3c2cnn3C(C)C)nc1` [Compound 5, 1-Isopropyl-4-(5-methyl-pyridin-2-yl)-1H-indazole-6-carboxylic acid ((S)-2-hydroxy-1-methyl-ethyl)-amide], the “pKi P2X2/3” value at human P2X2/3 receptor turned out to be 5.

Take `Cc1ccc(-c2cc(C(=O)NCc3cnc(C)cn3)cc3c2cnn3CC(C)C)nc1` [Compound 1, 1-Isobutyl-4-(5-methyl-pyridin-2-yl)-1H-indazole-6-carboxylic acid (5-methyl-pyrazin-2-ylmethyl)-amide]: the “pKi P2X3” value on rat P2X3 receptor was 7.3. Besides, the “pKi P2X2/3” value at human P2X2/3 receptor worked out at 5.78.

Turning to `Cc1ccc(-c2cc(C(=O)NCc3ccc(C)nn3)cc3c2cnn3Cc2ccccc2)nc1` [Compound 11, 1-Benzyl-4-(5-methyl-pyridin-2-yl)-1H-indazole-6-carboxylic acid (6-methyl-pyridazin-3-ylmethyl)-amide], the “pKi P2X3” value on rat P2X3 receptor is on record as 7.62. Besides, the “pKi P2X2/3” value on human P2X2/3 receptor came to 6.56.

As for `Cc1ccc(-c2cc(C(=O)N[C@@H](C)CO)cc3c2cnn3Cc2ccccc2)nc1` [Compound 10, 1-Benzyl-4-(5-methyl-pyridin-2-yl)-1H-indazole-6-carboxylic acid ((S)-2-hydroxy-1-methyl-ethyl)-amide], on rat P2X3 receptor, the “pKi P2X3” value is recorded as 6.2. Further, the “pKi P2X2/3” value at human P2X2/3 receptor is 5.61.

`Cc1ccc(-c2cc(C(=O)NCc3cnc(C)cn3)cc3c2ncn3CC(C)C)nc1` [Compound 28, 3-Isobutyl-7-(5-methyl-pyridin-2-yl)-3H-benzoimidazole-5-carboxylic acid (5-methyl-pyrazin-2-ylmethyl)-amide]: at rat P2X3 receptor, the “pKi P2X3” value worked out at 6.46.

(Values after patent publication US9440956B2, “Indole, indazole and benzimidazole arylamides as P2X3 and P2X2/3 antagonists” (Roche Palo Alto LLC, priority 2010, dated 2016).)
